Measured values published in patent publication US12509447B2, “Small molecule compound” (Technoderma Medicines Pte Ltd, priority 2019, dated 2025).

How the values were obtained:
Assay type in all cases: biochemical
Tyk2 = Tyk2 (Homo sapiens, UniProt P29597); test: Inhibition of JAK kinase activity, EZ Reader microfluidic phosphorylation of peptide substrate: Tyk2; settings: Tyk2 kinase 1 nM; highest final concentration 10 μM, 1:3 serial dilution, 8 points, duplicates
From the text: (§1) EZ Reader available from PerkinElmer can be used for detecting the phosphorylation of polypeptide substrates catalyzed by kinases. This device is based on microfluidic separation technology, and can directly detect fluorescence labeled substrates and products. The separation step is achieved in a microfluidic chip by controlling the pressure and electric field intensity. In a kinase experiment, the product conversion rate is generally controlled at 20-30%. This biological assay method is used for identifying the inhibitory effect of the compounds on JAK.
(§2) The compound powder was dissolved in DMSO, sealed and stored in a refrigerator at −20° C. The in-house compound Ref1 was used as a positive control for testing of JAK1, JAK2 and Tyk2, and Ref2 was used as a positive control for testing of JAK3.
(§3) • S2.1. 1M HEPES buffer: 0.5M HEPES free acid and 0.5M HEPES sodium salt are weighed, added into ultrapure water for dissolution, brought to a desired volume, filtered and stored in a refrigerator at 4° C. • S2.2. 40 mM ATP solution: dissolved in a 50 mM HEPES buffer solution, prepared into 40 mM, aliquoted, and cryopreserved in a refrigerator at −20° C. • S2.3. 0.5% Tween 20: 100% Tween 20 was diluted with ultrapure water, and stored in a refrigerator at 4° C. • S2.4. 35% bovine serum albumin: a 35% bovine serum albumin solution is prepared in ultrapure water, aliquoted, and stored in a refrigerator at −20° C. • S2.5. 1M dithiothreitol solution: dithiothreitol is formulated into a 1M solution with ultrapure water, aliquoted, and stored in a refrigerator at −20° C. • S2.6. 0.5 mM Jaktide Peptide substrate solution: it is dissolved in 50 mM HEPES to 0.5 mM, aliquoted, and stored in a refrigerator at −20° C. • S2.7. 0.5 mM IRStide Peptide substrate solution: it is dissolved in 50 mM HEPES to 0.5 mM, aliquoted, and stored in a refrigerator at −20° C. • S2.8. Assay Buffer: 20 mM HEPES buffer, pH 7.4, 10 mM magnesium chloride, 0.01% bovine serum albumin BSA, 0.0005% Tween-20, and a 1 mM dithiothreitol solution. • S2.9. Stop Buffer: 180 mM HEPES buffer, 20 mM ethylenediamine tetraacetic acid (EDTA), and 0.2% Coating Reagent 3. • S2.10. Separation Buffer: 100 mM HEPES buffer, 10 mM EDTA, 0.0005% Tween 20, 0.1% Coating Reagent 3, and 1% dimethyl sulfoxide. 3. Experimental Procedures • S3.1. Preparation of compound plate
(§4) The compound is dissolved in dimethyl sulfoxide to 10 mM, a certain volume is taken and diluted to 0.6 mM, 10 μl of the diluted 0.6 mM solution is taken and added into a 384 microplate or 1:3 serial dilution, with a total of 8 concentration points. • S3.2. Compound layout
(§5) • positive control (HPE1): Ref1, final concentration: 10 μM • positive control (HPE1): Ref2, final concentration: 10 μM • negative control (ZPE): DMSO, with a final concentration of 1.6% • Compound: the highest final concentration at 10 μM, 1:3 serial dilution, with 8 concentration points and in duplicates. 4. Experimental operation steps • S4.1. the experimental plate was added with 250 nl of the compound per well with ECHO, and centrifuged at 1,000 rpm for 1 minute; • S4.2. the precipitate was added with 5 μl of the experimental buffer, and shaken for several seconds to fully dissolve the compound; • S4.3. the solution was added with 5 μl of a 3× substrate solution, as well as 5 μl of a 3× kinase solution, and centrifuged at 800 rpm for 1 minute; • S4.4. The final concentrations of JAK1, JAK2, JAK3 and Tyk2 kinases in the reaction system are 20, 1, 1 and 1 nM, respectively. • S4.5. the reaction system is incubated at room temperature, wherein the incubation time of each kinase is different, and there are differences in incubation time of different batches of kinases. • S4.6. When the reaction reaches 20%-30%, the reaction system is added with 15 μl of the stop buffer to terminate the reaction, and centrifuged at 1,000 rpm for 2 minutes. • S4.7. The precipitate was placed onto a EZ Reader for plate reading. • S4.8. […]

JAK2 = JAK2 (Homo sapiens, UniProt O60674); test: Inhibition of JAK kinase activity, EZ Reader microfluidic phosphorylation of peptide substrate: JAK2; settings: JAK2 kinase 1 nM; highest final concentration 10 μM, 1:3 serial dilution, 8 points, duplicates
From the text: as §1, §2, §3, §4, §5

JAK3 = molecular target: T1, JAK3 (Homo sapiens, UniProt P52333); test: Inhibition of JAK kinase activity, EZ Reader microfluidic phosphorylation of peptide substrate: JAK3; settings: JAK3 kinase 1 nM; highest final concentration 10 μM, 1:3 serial dilution, 8 points, duplicates
T1 sequence (P52333 1-1124): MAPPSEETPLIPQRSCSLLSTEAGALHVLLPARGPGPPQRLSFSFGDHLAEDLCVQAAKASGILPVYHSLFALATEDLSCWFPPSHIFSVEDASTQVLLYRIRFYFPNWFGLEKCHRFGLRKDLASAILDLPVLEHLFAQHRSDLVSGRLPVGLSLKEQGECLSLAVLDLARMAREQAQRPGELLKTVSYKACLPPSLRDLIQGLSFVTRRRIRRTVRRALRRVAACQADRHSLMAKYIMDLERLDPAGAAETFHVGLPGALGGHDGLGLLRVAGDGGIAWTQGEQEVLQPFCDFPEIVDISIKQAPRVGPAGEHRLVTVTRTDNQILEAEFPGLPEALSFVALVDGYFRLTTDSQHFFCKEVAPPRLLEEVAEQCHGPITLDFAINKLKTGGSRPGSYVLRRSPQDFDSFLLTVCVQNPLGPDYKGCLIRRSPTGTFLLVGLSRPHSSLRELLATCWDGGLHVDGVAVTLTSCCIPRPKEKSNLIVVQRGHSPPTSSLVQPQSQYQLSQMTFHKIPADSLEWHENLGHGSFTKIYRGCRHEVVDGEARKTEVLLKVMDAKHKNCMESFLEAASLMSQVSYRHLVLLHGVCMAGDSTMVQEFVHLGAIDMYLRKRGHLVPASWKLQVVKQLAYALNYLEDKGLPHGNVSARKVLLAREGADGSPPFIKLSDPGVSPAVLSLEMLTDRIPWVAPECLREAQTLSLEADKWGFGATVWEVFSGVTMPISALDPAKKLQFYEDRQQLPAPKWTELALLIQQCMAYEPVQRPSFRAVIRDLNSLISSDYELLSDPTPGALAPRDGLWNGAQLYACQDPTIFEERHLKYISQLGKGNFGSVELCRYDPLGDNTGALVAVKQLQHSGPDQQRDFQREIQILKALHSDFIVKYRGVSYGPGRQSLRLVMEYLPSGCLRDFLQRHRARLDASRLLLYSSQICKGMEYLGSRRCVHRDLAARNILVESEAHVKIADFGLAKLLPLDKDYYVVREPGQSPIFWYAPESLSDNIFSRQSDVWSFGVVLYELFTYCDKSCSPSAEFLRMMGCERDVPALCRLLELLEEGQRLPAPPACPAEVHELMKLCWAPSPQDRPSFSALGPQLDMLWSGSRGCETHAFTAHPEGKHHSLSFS
From the text: as §1, §2, §3, §4, §5

JAK1 = JAK1 (Homo sapiens, UniProt P23458); test: Inhibition of JAK kinase activity, EZ Reader microfluidic phosphorylation of peptide substrate: JAK1; settings: JAK1 kinase 20 nM; highest final concentration 10 μM, 1:3 serial dilution, 8 points, duplicates
From the text: as §1, §2, §3, §4, §5

Tyk2, sequence (P29597 whole entry): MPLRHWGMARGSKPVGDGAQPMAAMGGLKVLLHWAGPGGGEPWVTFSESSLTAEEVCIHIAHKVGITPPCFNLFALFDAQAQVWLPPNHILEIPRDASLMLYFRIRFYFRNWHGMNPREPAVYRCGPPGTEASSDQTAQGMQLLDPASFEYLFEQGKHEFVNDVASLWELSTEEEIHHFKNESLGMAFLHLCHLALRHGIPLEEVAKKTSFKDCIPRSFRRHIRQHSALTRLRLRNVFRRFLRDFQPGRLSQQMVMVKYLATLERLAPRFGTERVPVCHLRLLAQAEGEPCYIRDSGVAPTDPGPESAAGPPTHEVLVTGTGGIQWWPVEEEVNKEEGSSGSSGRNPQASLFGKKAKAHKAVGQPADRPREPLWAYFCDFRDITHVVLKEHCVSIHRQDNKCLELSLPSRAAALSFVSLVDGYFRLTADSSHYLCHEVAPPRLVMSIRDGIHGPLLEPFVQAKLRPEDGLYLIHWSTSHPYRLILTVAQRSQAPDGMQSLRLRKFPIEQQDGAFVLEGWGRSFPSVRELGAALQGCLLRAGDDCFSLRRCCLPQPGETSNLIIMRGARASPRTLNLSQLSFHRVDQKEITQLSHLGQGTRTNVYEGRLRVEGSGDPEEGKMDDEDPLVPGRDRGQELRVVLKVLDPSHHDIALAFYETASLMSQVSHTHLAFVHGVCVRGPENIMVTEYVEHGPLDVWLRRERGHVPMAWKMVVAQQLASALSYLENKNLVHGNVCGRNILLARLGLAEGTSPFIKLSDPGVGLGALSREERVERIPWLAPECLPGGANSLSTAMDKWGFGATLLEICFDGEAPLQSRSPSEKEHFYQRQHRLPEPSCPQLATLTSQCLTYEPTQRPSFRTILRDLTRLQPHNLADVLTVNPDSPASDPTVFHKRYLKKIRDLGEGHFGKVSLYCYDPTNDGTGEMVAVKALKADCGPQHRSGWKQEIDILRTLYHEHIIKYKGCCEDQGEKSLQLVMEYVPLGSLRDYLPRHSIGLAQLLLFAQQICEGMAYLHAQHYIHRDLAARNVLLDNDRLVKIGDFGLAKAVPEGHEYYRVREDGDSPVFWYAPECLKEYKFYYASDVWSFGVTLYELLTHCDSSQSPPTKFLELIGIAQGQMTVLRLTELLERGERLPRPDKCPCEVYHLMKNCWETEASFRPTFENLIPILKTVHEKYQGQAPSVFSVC
JAK2, sequence (O60674 whole entry): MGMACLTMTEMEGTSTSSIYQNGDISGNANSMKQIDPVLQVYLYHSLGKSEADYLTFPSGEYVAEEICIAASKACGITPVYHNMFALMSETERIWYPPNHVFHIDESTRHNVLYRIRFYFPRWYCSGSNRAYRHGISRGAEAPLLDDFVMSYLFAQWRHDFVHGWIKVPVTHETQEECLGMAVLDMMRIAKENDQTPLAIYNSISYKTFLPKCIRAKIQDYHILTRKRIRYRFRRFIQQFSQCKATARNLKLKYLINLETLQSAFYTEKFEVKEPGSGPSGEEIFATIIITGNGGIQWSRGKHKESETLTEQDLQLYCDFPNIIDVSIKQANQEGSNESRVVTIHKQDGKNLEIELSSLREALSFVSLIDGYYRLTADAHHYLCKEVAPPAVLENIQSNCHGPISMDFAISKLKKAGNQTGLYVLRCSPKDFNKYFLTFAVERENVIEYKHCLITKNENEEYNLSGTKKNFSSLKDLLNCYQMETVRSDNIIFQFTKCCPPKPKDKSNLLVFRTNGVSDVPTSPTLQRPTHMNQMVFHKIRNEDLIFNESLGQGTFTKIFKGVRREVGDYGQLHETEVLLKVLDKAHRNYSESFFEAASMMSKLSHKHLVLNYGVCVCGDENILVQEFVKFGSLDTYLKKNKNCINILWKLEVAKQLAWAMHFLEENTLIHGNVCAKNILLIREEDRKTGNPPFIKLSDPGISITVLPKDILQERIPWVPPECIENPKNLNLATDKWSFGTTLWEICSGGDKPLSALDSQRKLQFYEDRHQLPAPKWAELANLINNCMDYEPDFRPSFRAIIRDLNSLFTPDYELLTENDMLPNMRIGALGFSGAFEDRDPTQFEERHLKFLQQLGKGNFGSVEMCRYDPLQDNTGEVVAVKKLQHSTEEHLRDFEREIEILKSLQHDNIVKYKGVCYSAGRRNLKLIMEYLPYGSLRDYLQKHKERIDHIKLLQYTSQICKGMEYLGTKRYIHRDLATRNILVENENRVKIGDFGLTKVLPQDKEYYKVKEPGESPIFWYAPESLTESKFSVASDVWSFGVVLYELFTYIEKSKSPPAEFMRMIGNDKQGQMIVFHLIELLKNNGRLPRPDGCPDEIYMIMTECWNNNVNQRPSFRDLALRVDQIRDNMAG
JAK1, sequence (P23458 whole entry): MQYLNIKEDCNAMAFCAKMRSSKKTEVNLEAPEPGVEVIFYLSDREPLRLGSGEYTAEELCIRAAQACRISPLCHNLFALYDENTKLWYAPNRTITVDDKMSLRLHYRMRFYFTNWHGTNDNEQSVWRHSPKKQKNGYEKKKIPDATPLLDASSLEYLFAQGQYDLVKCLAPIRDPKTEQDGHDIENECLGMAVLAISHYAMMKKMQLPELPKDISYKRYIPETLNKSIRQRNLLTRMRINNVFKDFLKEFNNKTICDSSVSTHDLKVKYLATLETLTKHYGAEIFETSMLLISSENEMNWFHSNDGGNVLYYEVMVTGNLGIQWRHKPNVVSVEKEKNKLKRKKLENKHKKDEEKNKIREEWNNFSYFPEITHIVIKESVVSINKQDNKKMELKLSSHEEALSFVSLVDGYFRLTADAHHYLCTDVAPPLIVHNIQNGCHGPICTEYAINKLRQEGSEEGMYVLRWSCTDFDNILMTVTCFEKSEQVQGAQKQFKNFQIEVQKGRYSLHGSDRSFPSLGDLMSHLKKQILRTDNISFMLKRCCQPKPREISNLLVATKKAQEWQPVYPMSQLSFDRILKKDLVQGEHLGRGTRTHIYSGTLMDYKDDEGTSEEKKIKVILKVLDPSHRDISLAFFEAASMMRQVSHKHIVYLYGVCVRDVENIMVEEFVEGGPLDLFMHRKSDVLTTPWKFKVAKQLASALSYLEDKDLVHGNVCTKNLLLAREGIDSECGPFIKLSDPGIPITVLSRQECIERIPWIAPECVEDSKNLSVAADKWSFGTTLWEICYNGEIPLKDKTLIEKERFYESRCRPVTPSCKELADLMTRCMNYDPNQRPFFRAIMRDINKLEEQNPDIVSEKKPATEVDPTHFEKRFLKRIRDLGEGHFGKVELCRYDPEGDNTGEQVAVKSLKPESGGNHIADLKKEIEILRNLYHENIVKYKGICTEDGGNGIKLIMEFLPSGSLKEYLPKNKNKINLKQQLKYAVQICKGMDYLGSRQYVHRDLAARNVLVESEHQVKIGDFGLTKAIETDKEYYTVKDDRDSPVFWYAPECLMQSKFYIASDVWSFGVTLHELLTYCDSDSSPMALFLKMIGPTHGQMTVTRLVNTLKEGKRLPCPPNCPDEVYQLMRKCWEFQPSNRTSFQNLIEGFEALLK

IC50 (Tyk2) [µM]	IC50 (JAK2) [µM]	IC50 (JAK3) [µM]	IC50 (JAK1) [µM]	Structure (SMILES)
≥ 10	≥ 10	≥ 10	≥ 10	Cn1cc(Nc2cc(-c3cnn(C4CN(C(=O)CC(F)(F)F)C4)c3)ccn2)cn1 [TDM-180636, 3,3,3-trifluoro-1-(3-(4-(2-((1-methyl-1H-pyrazol-4-yl)amino)pyridin-4-yl)-1H-pyrazol-1-yl)azetidin-1-yl)propan-1-one]
≥ 10	≥ 10	≥ 10	≥ 10	Cn1cc(Nc2cc(-c3cnn(C4CN(C(=O)C5CC5)C4)c3)ccn2)cn1 [TDM-180637, cyclopropyl(3-(4-(2-((1-methyl-1H-pyrazol-4-yl)amino)pyridin-4-yl)-1H-pyrazol-1-yl)azetidin-1-yl)ketone]
≥ 10	≥ 10	≥ 10	≥ 10	Cn1cc(Nc2cc(-c3cnn(C4CN(C(=O)C5CC5(F)F)C4)c3)ccn2)cn1 (stereo not drawn) [TDM-180638]
≥ 10	≥ 10	≥ 10	≥ 10	CCC(=O)N1CC(n2cc(-c3ccnc(Nc4cnn(C)c4)c3)cn2)C1 [TDM-180639, 1-(3-(4-(2-((1-methyl-1H-pyrazol-4-yl)amino)pyridin-4-y1)-1H-pyrazol-1-yl)azetidin-1-yl)propan-1-one]
≥ 10	≥ 10	≥ 10	≥ 10	CCCC(=O)N1CC(n2cc(-c3ccnc(Nc4cnn(C)c4)c3)cn2)C1 [TDM-180640, 1-(3-(4-(2-((1-methyl-1H-pyrazol-4-yl)amino)pyridin-4-yl)-1H-pyrazol-1-yl)azetidin-1-yl)butan-1-one]
≥ 10	≥ 10	≥ 10	≥ 10	Cn1cc(Nc2cc(-c3cnn(C4CN(C(=O)CC#N)C4)c3)ccn2)cn1 [TDM-180641, 3-(3-(4-(2-((1-methyl-1H-pyrazol-4-yl)amino)pyridin-4-yl)-1H-pyrazol-1-yl)azetidin-1-yl)-3-oxypropionitrile]
≥ 10	≥ 10	≥ 10	≥ 10	CCS(=O)(=O)N1CC(n2cc(-c3ccnc(Nc4cnn(C)c4)c3)cn2)C1 [TDM-180642, 4-(1-(1-(ethylsulfonyl)azetidin-3-yl)-1H-pyrazol-4-yl)-N-(1-methyl-1H-pyrazol-4-yl) pyridine-2-amine]
≥ 10	≥ 10	≥ 10	≥ 10	CCCS(=O)(=O)N1CC(n2cc(-c3ccnc(Nc4cnn(C)c4)c3)cn2)C1 [TDM-180643, N-(1-methyl-1H-pyrazol-4-yl)-4-(1-(1-(propylsulfonyl)azetidin-3-yl)-1H-pyrazol-4-yl)pyridine-2-amine]
≥ 10	≥ 10	≥ 10	≥ 10	Cn1cc(Nc2cc(-c3cnn(C4CN(C(=O)CO)C4)c3)ccn2)cn1 [TDM-180644, 2-hydroxy-1-(3-(4-(2-((1-methyl-1H-pyrazol-4-yl)amino)pyridin-4-yl)-1H-pyrazol-1-yl)azetidin-1-yl)ethan-1-one]
≥ 10	≥ 10	≥ 10	≥ 10	CC(=O)N1CC(n2cc(-c3ccnc(Nc4cnn(C)c4)c3)cn2)C1 [TDM-180645]
≥ 10	≥ 10	≥ 10	≥ 10	CCC(=O)N1CC(n2cc(-c3ccnc(Nc4cnn(C)c4)n3)cn2)C1 [TDM-180646, 1-(3-(4-(2-((1-methyl-1H-pyrazol-4-yl)amino)pyrimidin-4-yl)-1H-pyrazol-1-yl)azetidin-1-yl)propan-1-one]
0.1 to 1			0.1 to 1	COC(=O)CS(=O)(=O)N1CC(CC#N)(n2cc(-c3ccnc(Nc4cnn(C)c4)n3)cn2)C1 [TDM-180930]
0.1 to 1			0.1 to 1	Cn1cc(Nc2nccc(-c3cnn(C4(CC#N)CN(S(=O)(=O)CC5CC5)C4)c3)n2)cn1 [TDM-180931, 2-(1-((cyclopropylmethyl)sulfonyl)-3-(4-(2-((1-methyl-1H-pyrazol-4-yl)amino)pyrimidin-4-yl)-1H-pyrazol-1-yl)azetidin-3-yl)acetonitrile]
0.1 to 1			0.1 to 1	CC(C)S(=O)(=O)N1CC(CC#N)(n2cc(-c3ccnc(Nc4cnn(C)c4)n3)cn2)C1 [TDM-180932, 2-(1-(isopropylsulfonyl)-3-(4-(2-((1-methyl-1H-pyrazol-4-yl)amino)pyrimidin-4-yl)-1H-pyrazol-1-yl)azetidinpyridin-3-yl)acetonitrile]
< 0.1			< 0.1	Cn1cc(Nc2nccc(-c3ccn(C4(CC#N)CN(C(=O)[C@@H]5CC5(F)F)C4)c3)n2)cn1 [TDM-180937, (S)-2-(1-(2,2-difluorocyclopropane-1-carbonyl)-3-(3-(2-((1-methyl-1H-pyrazol-4-yl)amino)pyrimidin-4-yl)-1H-pyrrol-1-yl)azetidin-3-yl)acetonitrile]
0.1 to 1			0.1 to 1	Cn1cc(Nc2nccc(-c3ccn(C4(CC#N)CN(C(=O)[C@H]5CC5(F)F)C4)c3)n2)cn1 [TDM-180938, (R)-2-(1-(2,2-difluorocyclopropane-1-carbonyl)-3-(3-(2-((1-methyl-1H-pyrazol-4-yl)amino)pyrimidin-4-yl)-1H-pyrrol-1-yl)azetidin-3-yl)acetonitrile]
